Common to all, as to set-up: dose 2.5 mg/kg, route intraperitoneal
For series [1], the system named is Serum. In words: Drug uptake in C57BL/6J mouse serum at 2.5 mg/kg, ip measured at 10 to 60 mins by CE-UV analysis. It counts as ADME, organism-based. As to conditions: in vivo; call rule not given here.
Series [2] concerns Brain. In words: Drug uptake in C57BL/6J mouse brain at 2.5 mg/kg, ip measured at 4 hrs by CE-UV analysis. It counts as ADME, organism-based. The settings on record: in vivo.
Series [3] can be described thus: Drug uptake in C57BL/6J mouse eye at 2.5 mg/kg, ip measured at 10 hrs by CE-UV analysis. It counts as ADME, organism-based. As to conditions: in vivo.
Series [4] has as its system Serum. In words: Half life in C57BL/6J mouse serum at 2.5 mg/kg, ip. It counts as ADME, organism-based. The settings on record: in vivo.
Series [5] in a line: Drug uptake in C57BL/6J mouse CSF at 2.5 mg/kg, ip measured at 4 to 10 hrs by CE-UV analysis. It counts as ADME, organism-based, Cerebrospinal fluid. As to conditions: in vivo.
Series [6] has as its system Serum. The series can be described thus: AUC in C57BL/6J mouse serum at 2.5 mg/kg, ip by CE-UV analysis. The settings on record: in vivo. It counts as ADME, organism-based, Plasma.
The nature of series [7]: AUC in C57BL/6J mouse CSF at 2.5 mg/kg, ip by CE-UV analysis. It counts as ADME, organism-based.

As a reminder, the AUC is concentration integrated over time. In the case of `CN1C(=O)N[C@H]2[C@@H]3NC(=O)c4ccc(Br)n4[C@@H]3C[C@]21O` [AGELASTATIN A], the Drug uptake result in series [1], in series [2], in series [3] and in series [5] was “Active” each time. In series [4], the t1/2 came out at 12 h. Moreover, the results for the AUC in series [6] and in series [7] were 33.8 µM·h and 3.41 µM·h, respectively.

The values above are taken from ChEMBL document CHEMBL3217731 (Medchemcomm, 2012).
